Data: patent US8933063B2, “Preparation of a crystalline antibiotic substance” (Leo Pharma A/S, priority 2005, dated 2015)

Assay: Stability assay: six month storage stability of polymorphic forms of fusidic acid (HPLC)
Assay type: physicochemical
Conditions: for HPLC-assay (% of origin) / Impurities total (%): after 6 month storage at 40° C., solid crystal form

Row | HPLC-assay (% of origin) | Impurities total (%) | HPLC-assay (% of origin) (hemihydrate) | Impurities total (%) (hemihydrate) | Relative stability among known forms of fusidic acid (comparative six month standard stability study) | SMILES
1 | 98.2 % of origin | 1.0 |  |  |  | CC(=O)O[C@H]1C[C@@]2(C)[C@@H](C[C@@H](O)[C@H]3[C@@]4(C)CC[C@@H](O)[C@@H](C)[C@@H]4CC[C@@]32C)/C1=C(\CCC=C(C)C)C(=O)O [Fusidic acid form I from ES 2208110, Fusidic acid]
2 | 88.2 % of origin | 5.2 |  |  |  | CC(=O)O[C@H]1C[C@@]2(C)[C@@H](C[C@@H](O)[C@H]3[C@@]4(C)CC[C@@H](O)[C@@H](C)[C@@H]4CC[C@@]32C)/C1=C(\CCC=C(C)C)C(=O)O [Fusidic acid form II from ES 2208110, Fusidic acid]
3 |  |  | 87.7 % of origin | 8.7 |  | CC(=O)O[C@H]1C[C@@]2(C)[C@@H](C[C@@H](O)[C@H]3[C@@]4(C)CC[C@@H](O)[C@@H](C)[C@@H]4CC[C@@]32C)/C1=C(\CCC=C(C)C)C(=O)O [Fusidic acid hemihydrate]
4 | 99.2 % of origin | 0.1 |  |  | most stable form | CC(=O)O[C@H]1C[C@@]2(C)[C@@H](C[C@@H](O)[C@H]3[C@@]4(C)CC[C@@H](O)[C@@H](C)[C@@H]4CC[C@@]32C)/C1=C(\CCC=C(C)C)C(=O)O [Fusidic acid of the present invention, Fusidic acid]
